Results taken from US9656988B2 (Pharmacyclics LLC, priority 2013, dated 2017).
Like-named read-outs stand apart in the source and are kept apart here.

Biological target: BTK (Homo sapiens (Human), UniProt Q06187)
Assay: Btk in vitro inhibitory activity (one of Method A TR-FRET, Method B electrophoretic mobility shift, Method C radiometric filter binding)
Format: biochemical
[1] = determined using one of the methods of Example 355a, 355b and 355c, read-out: BTK IC50

Sequence of BTK (Q06187 whole entry): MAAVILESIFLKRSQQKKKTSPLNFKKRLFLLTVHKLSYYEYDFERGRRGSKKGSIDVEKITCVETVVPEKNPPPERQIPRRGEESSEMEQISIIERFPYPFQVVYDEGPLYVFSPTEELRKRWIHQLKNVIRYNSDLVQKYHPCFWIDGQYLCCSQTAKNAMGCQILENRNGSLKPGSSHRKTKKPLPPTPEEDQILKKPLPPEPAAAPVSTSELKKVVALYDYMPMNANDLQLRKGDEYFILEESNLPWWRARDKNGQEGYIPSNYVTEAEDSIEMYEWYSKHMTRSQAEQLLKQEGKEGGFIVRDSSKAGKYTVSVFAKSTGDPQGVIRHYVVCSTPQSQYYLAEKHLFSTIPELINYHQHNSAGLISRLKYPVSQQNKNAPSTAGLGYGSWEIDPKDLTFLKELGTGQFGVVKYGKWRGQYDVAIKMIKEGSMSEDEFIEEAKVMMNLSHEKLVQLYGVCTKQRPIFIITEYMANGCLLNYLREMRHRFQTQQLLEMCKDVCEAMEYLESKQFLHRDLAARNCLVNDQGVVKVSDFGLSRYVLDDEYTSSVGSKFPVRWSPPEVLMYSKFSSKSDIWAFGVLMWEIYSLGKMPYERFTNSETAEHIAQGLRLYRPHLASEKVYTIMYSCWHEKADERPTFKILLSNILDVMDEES

Structure (SMILES) | IC50 [1] [µM] | IC50 (read-out: Btk (IC50)) [µM] | IC50 (Btk (IC50)) [µM] | IC50 [µM]
CN(C)C(=O)N[C@@H]1CCCN(c2cnc(C(N)=O)c(Nc3ccc(C4CCN(C(=O)C5CC5)CC4)cc3)n2)C1 [Example 171, (R)-3-(4-(1-(cyclopropanecarbonyl)piperidin-4-yl)phenylamino)-5-(3-(3,3-dimethylureido)piperidin-1-yl)pyrazine-2-carboxamide] | < 0.01 | < 0.01 | – | –
CN(C)C(=O)N[C@@H]1CCCN(c2cnc(C(N)=O)c(Nc3ccc(C4CCN(S(C)(=O)=O)CC4)cc3)n2)C1 [Example 172, (R)-5-(3-(3,3-dimethylureido)piperidin-1-yl)-3-(4-(1-(methylsulfonyl)piperidin-4-yl)phenylamino)pyrazine-2-carboxamide] | < 0.01 | < 0.01 | – | –
CN(C)C(=O)N[C@@H]1CCCN(c2cnc(C(N)=O)c(Nc3ccc(C4CCN(S(=O)(=O)N(C)C)CC4)cc3)n2)C1 [Example 173, (R)-3-(4-(1-(N,N-dimethylsulfamoyl)piperidin-4-yl)phenylamino)-5-(3-(3,3-dimethylureido)piperidin-1-yl)pyrazine-2-carboxamide] | 0.01 to 0.1 | – | 0.01 to 0.1 | –
CN(C)C(=O)N[C@@H]1CCCN(c2cnc(C(N)=O)c(Nc3ccc(C4CCN(c5ccccn5)CC4)cc3)n2)C1 [Example 174, (R)-5-(3-(3,3-dimethylureido)piperidin-1-yl)-3-(4-(1-(pyridin-2-yl)piperidin-4-yl)phenylamino)pyrazine-2-carboxamide] | 0.01 to 0.1 | 0.01 to 0.1 | – | –
CN(C)C(=O)N[C@@H]1CCCN(c2cnc(C(N)=O)c(Nc3ccc(C4CCN(C5CCC5)CC4)cc3)n2)C1 [Example 175, (R)-3-(4-(1-cyclobutylpiperidin-4-yl)phenylamino)-5-(3-(3,3-dimethylureido)piperidin-1-yl)pyrazine-2-carboxamide] | < 0.01 | < 0.01 | – | –
CN(C)C(=O)N[C@@H]1CCCN(c2cnc(C(N)=O)c(Nc3ccc(C4CCN(C5CCOCC5)CC4)cc3)n2)C1 [Example 176, (R)-5-(3-(3,3-dimethylureido)piperidin-1-yl)-3-(4-(1-(tetrahydro-2H-pyran-4-yl)piperidin-4-yl)phenylamino)pyrazine-2-carboxamide] | < 0.01 | < 0.01 | – | –
CN(C)C(=O)N[C@@H]1CCCN(c2cnc(C(N)=O)c(Nc3ccc(C4CCN(CCOCCO)CC4)cc3)n2)C1 [Example 177, (R)-5-(3-(3,3-dimethylureido)piperidin-1-yl)-3-(4-(1-(2-(2-hydroxyethoxy)ethyl)piperidin-4-yl)phenylamino)pyrazine-2-carboxamide] | < 0.01 | < 0.01 | – | –
CN(C)C(=O)N[C@@H]1CCCN(c2cnc(C(N)=O)c(Nc3ccc(Cl)cc3)n2)C1 [Example 181, (R)-3-(4-chlorophenylamino)-5-(3-(3,3-dimethylureido)piperidin-1-yl)pyrazine-2-carboxamide] | 0.01 to 0.1 | – | – | –
COc1cc(Nc2nc(N3CCC[C@@H](NC(=O)N(C)C)C3)cnc2C(N)=O)ccc1Cl [Example 182, (R)-3-(4-chloro-3-methoxyphenylamino)-5-(3-(3,3-dimethylureido)piperidin-1-yl)pyrazine-2-carboxamide] | 0.1 to 1 | – | 0.1 to 1 | –
COc1cc(Nc2nc(N3CCC[C@@H](NC(=O)N(C)C)C3)cnc2C(N)=O)ccc1C [Example 183, (R)-5-(3-(3,3-dimethylureido)piperidin-1-yl)-3-(3-methoxy-4-methylphenylamino)pyrazine-2-carboxamide] | 0.1 to 1 | – | – | 0.1 to 1
Cc1nc(Nc2nc(N3CCC[C@@H](NC(=O)N(C)C)C3)cnc2C(N)=O)ccc1F [Example 184, (R)-5-(3-(3,3-dimethylureido)piperidin-1-yl)-3-(5-fluoro-6-methylpyridin-2-ylamino)pyrazine-2-carboxamide] | 1 to 10 | – | – | 0.1 to 1
CN(C)C(=O)N[C@@H]1CCCN(c2cnc(C(N)=O)c(Nc3ccn(C)c(=O)c3)n2)C1 [Example 185, (R)-5-(3-(3,3-dimethylureido)piperidin-1-yl)-3-(1-methyl-2-oxo-1,2-dihydropyridin-4-ylamino)pyrazine-2-carboxamide] | 0.1 to 1 | – | 0.1 to 1 | –
CN(C)C(=O)N[C@@H]1CCCN(c2cnc(C(N)=O)c(Nc3ccc(=O)n(C)c3)n2)C1 [Example 186, (R)-5-(3-(3,3-dimethylureido)piperidin-1-yl)-3-(1-methyl-6-oxo-1,6-dihydropyridin-3-ylamino)pyrazine-2-carboxamide] | 0.01 to 0.1 | – | 0.01 to 0.1 | –
CC(C)Oc1ccc(Nc2nc(N3CCC[C@@H](NC(=O)N(C)C)C3)cnc2C(N)=O)cc1 [Example 188, (R)-5-(3-(3,3-dimethylureido)piperidin-1-yl)-3-(4-isopropoxyphenylamino)pyrazine-2-carboxamide] | < 0.01 | < 0.01 | – | –
CN(C)CCOc1ccc(Nc2nc(N3CCC[C@@H](NC(=O)N(C)C)C3)cnc2C(N)=O)cc1 [Example 191, (R)-3-(4-(2-(dimethylamino)ethoxy)phenylamino)-5-(3-(3,3-dimethylureido)piperidin-1-yl)pyrazine-2-carboxamide] | 0.01 to 0.1 | – | 0.01 to 0.1 | –
CN(C)C(=O)N[C@@H]1CCCN(c2cnc(C(N)=O)c(Nc3ccc([N+](=O)[O-])cc3)n2)C1 [Example 192, (R)-5-(3-(3,3-dimethylureido)piperidin-1-yl)-3-(4-nitrophenylamino)pyrazine-2-carboxamide] | 0.01 to 0.1 | – | 0.01 to 0.1 | –
CN(C)Cc1ccc(Nc2nc(N3CCC[C@@H](NC(=O)N(C)C)C3)cnc2C(N)=O)cc1 [Example 193, (R)-3-(4-((dimethylamino)methyl)phenylamino)-5-(3-(3,3-dimethylureido)piperidin-1-yl)pyrazine-2-carboxamide] | 0.01 to 0.1 | – | 0.01 to 0.1 | –
CN(C)C(=O)N[C@@H]1CCCN(c2cnc(C(N)=O)c(Nc3ccc(C(=O)N4CCCC4)cc3)n2)C1 [Example 195, (R)-5-(3-(3,3-dimethylureido)piperidin-1-yl)-3-(4-(pyrrolidine-1-carbonyl)phenylamino)pyrazine-2-carboxamide] | < 0.01 | – | – | –

Second part, led by results:

IC50 [1] [µM] | IC50 (read-out: Btk (IC50)) [µM] | IC50 (Btk (IC50)) [µM] | Structure (SMILES) | IC50 [µM]
0.01 to 0.1 | 0.01 to 0.1 | – | CN(C)C(=O)N[C@@H]1CCCN(c2cnc(C(N)=O)c(Nc3ccc(F)cc3)n2)C1 [Example 179, (R)-5-(3-(3,3-dimethylureido)piperidin-1-yl)-3-(4-fluorophenylamino)pyrazine-2-carboxamide] | –
0.1 to 1 | – | – | CN(C)C(=O)N[C@@H]1CCCN(c2cnc(C(N)=O)c(Nc3ccccc3)n2)C1 [Example 180, (R)-5-(3-(3,3-dimethylureido)piperidin-1-yl)-3-(phenylamino)pyrazine-2-carboxamide] | –
0.01 to 0.1 | – | 0.01 to 0.1 | Cc1cc(Nc2nc(N3CCC[C@@H](NC(=O)N(C)C)C3)cnc2C(N)=O)sn1 [Example 187, (R)-5-(3-(3,3-dimethylureido)piperidin-1-yl)-3-(3-methylisothiazol-5-ylamino)pyrazine-2-carboxamide] | –
0.01 to 0.1 | – | 0.01 to 0.1 | CN(C)C(=O)N[C@@H]1CCCN(c2cnc(C(N)=O)c(Nc3ccc(OC4CCCC4)cc3)n2)C1 [Example 189, (R)-3-(4-(cyclopentyloxy)phenylamino)-5-(3-(3,3-dimethylureido)piperidin-1-yl)pyrazine-2-carboxamide] | –
< 0.01 | < 0.01 | – | CN(C)C(=O)N[C@@H]1CCCN(c2cnc(C(N)=O)c(Nc3ccc(C(=O)N(C)C)cc3)n2)C1 [Example 194, (R)-3-(4-(dimethylcarbamoyl)phenylamino)-5-(3-(3,3-dimethylureido)piperidin-1-yl)pyrazine-2-carboxamide] | –
0.01 to 0.1 | – | – | CN(C)C(=O)N[C@@H]1CCCN(c2cnc(C(N)=O)c(Nc3ccc(C(=O)Nc4ccccn4)cc3)n2)C1 [Example 196, (R)-5-(3-(3,3-dimethylureido)piperidin-1-yl)-3-(4-(pyridin-2-ylcarbamoyl)phenylamino)pyrazine-2-carboxamide] | –
< 0.01 | < 0.01 | – | CN(C)C(=O)N[C@@H]1CCCN(c2cnc(C(N)=O)c(Nc3ccc(C(C)(C)C#N)cc3)n2)C1 [Example 197, (R)-3-(4-(2-cyanopropan-2-yl)phenylamino)-5-(3-(3,3-dimethylureido)piperidin-1-yl)pyrazine-2-carboxamide] | –
0.01 to 0.1 | 0.01 to 0.1 | – | CN(C)C(=O)N[C@@H]1CCCN(c2cnc(C(N)=O)c(Nc3ccc(C(C)(C)C(N)=O)cc3)n2)C1 [Example 198, (R)-3-(4-(1-amino-2-methyl-1-oxopropan-2-yl)phenylamino)-5-(3-(3,3-dimethylureido)piperidin-1-yl)pyrazine-2-carboxamide] | –
< 0.01 | < 0.01 | – | CN(C)C(=O)N[C@@H]1CCCN(c2cnc(C(N)=O)c(Nc3ccc(C4(C#N)CC4)cc3)n2)C1 [Example 199, (R)-3-(4-(1-cyanocyclopropyl)phenylamino)-5-(3-(3,3-dimethylureido)piperidin-1-yl)pyrazine-2-carboxamide] | –
0.01 to 0.1 | – | – | CN(C)C(=O)N[C@@H]1CCCN(c2cnc(C(N)=O)c(Nc3ccc(C4(CN)CC4)cc3)n2)C1 [Example 201, (R)-3-(4-(1-(aminomethyl)cyclopropyl)phenylamino)-5-(3-(3,3-dimethylureido)piperidin-1-yl)pyrazine-2-carboxamide] | –
< 0.01 | < 0.01 | – | CN(C)C(=O)N[C@@H]1CCCN(c2cnc(C(N)=O)c(Nc3ccc(C4(C(=O)N(C)C)CC4)cc3)n2)C1 [Example 202, (R)-3-(4-(1-(dimethylcarbamoyl)cyclopropyl)phenylamino)-5-(3-(3,3-dimethylureido)piperidin-1-yl)pyrazine-2-carboxamide] | –
< 0.01 | – | < 0.01 | CN(C)C(=O)N[C@@H]1CCCN(c2cnc(C(N)=O)c(Nc3ccc(C4(C#N)CCCC4)cc3)n2)C1 [Example 203, (R)-3-(4-(1-cyanocyclopentyl)phenylamino)-5-(3-(3,3-dimethylureido)piperidin-1-yl)pyrazine-2-carboxamide] | –
0.01 to 0.1 | 0.01 to 0.1 | – | CN(C)C(=O)N[C@@H]1CCCN(c2cnc(C(N)=O)c(Nc3ccc(C4(CN)CCCC4)cc3)n2)C1 [Example 204, (R)-3-(4-(1-(aminomethyl)cyclopentyl)phenylamino)-5-(3-(3,3-dimethylureido)piperidin-1-yl)pyrazine-2-carboxamide] | –
